Reference: patent publication US20230051589A1, “COMPOUNDS AND COMPOSITIONS FOR TREATING CONDITIONS ASSOCIATED WITH NLRP ACTIVITY” (Novartis AG, priority 2018, published 2023)
Like-named read-outs stand apart in the source and are kept apart here. Each block holds one compound with its values, some of them ahead of it.

Tested on: IL-1β production in PMA-differentiated THP-1 cells
Assay: IL-1β production in PMA-differentiated THP-1 cells stimulated with gramicidin (hTHP-1 assay, 2% fetal bovine serum; Procedures 1-3)
Assay type: cell-based, human
Summary of the method: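 IL-1β released into supernatants was read by HTRF after 2 h gramicidin (5 μM) challenge. Before challenge, compounds (3-fold dilutions, top 100 μM, 0.37% DMSO) were given 1 h on THP-1 cells differentiated with PMA (20 ng/ml, 16-18 h) and held in 2% FBS medium.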

[1] = hTHP-1 assay containing 2% fetal bovine serum, Table B2, class symbols, read-out: IC50
[2] = Homo sapiens, THP-1, hTHP-1 assay containing 2% fetal bovine serum, Table B2, class symbols, read-out: IC50
[3] = Table B1, hTHP-1 assay containing 2% fetal bovine serum, gramicidin stimulation, IL-1β readout, read-out: hTHP-1 IC50 (average)

IC50 [1]: 200 to 1000 nM
SMILES: CC(C)(O)c1cc(S(N)(=O)=NC(=O)Nc2c3c(cc4c2CCC4)CCC3)sc1-c1ccccc1 (centres unmarked) [Example 477, N′-((1,2,3,5,6,7-hexahydro-s-indacen-4-yl)carbamoyl)-4-(2-hydroxypropan-2-yl)-5-phenylthiophene-2-sulfomidamide]

IC50 [2]: 40 to 200 nM
SMILES: Cc1c(C2CC2)cc2c(c1NC(=O)N=S(N)(=O)c1cc(C(C)(C)O)cs1)CCC2 (centres unmarked) [Example 465, N′-((6-cyclopropyl-5-methyl-2,3-dihydro-1H-inden-4-yl)carbamoyl)-4-(2-hydroxypropan-2-yl)thiophene-2-sulfonimidamide]

IC50 [1]: 8 to 40 nM
SMILES: Cc1c(C2CC2)cc2c(c1NC(=O)N=S(N)(=O)c1sc(C(C)(C)O)cc1F)CCC2 (single isomer, unassigned) [Example 685, (R) or (S)-N′-((6-cyclopropyl-5-methyl-2,3-dihydro-1H-inden-4-yl)carbamoyl)-3-fluoro-5-(2-hydroxypropan-2-yl)thiophene-2-sulfonimidamide]

IC50 [1]: 1000 to 5000 nM
SMILES: CC(C)(O)c1csc(S(N)(=O)=NC(=O)Nc2c3c(c(C#N)c4c2CCC4)CCC3)n1 (single isomer, unassigned) [Example 540, (S) or (R)-N′-((8-cyano-1,2,3,5,6,7-hexahydro-s-indacen-4-yl)carbamoyl)-4-(2-hydroxypropan-2-yl)thiazole-2-sulfonimidamide]

IC50 (Homo sapiens, THP-1, Table B3, hTHP-1 assay containing 2% fetal bovine serum, gramicidin stimulation, IL-1β readout, read-out: hTHP-1 IC50): 8 to 40 nM
SMILES: NS(=O)(=NC(=O)Nc1c2c(cc3c1CC3)CCC2)c1sc2c(c1F)CNCC2 (centres unmarked) [Example 732, 3-Fluoro-N′-((2,4,5,6-tetrahydro-1H-cyclobuta[f]inden-3-yl)carbamoyl)-4,5,6,7-tetrahydrothieno[3,2-c]pyridine-2-sulfonimidamide]

IC50 [3]: > 30000 nM
SMILES: CCc1ccc2cn(C)nc2c1NC(=O)N=S(N)(=O)c1ncc(C(C)(C)O)s1 (single isomer, unassigned) [Example 330, (R) or (S)-N′-((6-ethyl-2-methyl-2H-indazol-7-yl)-carbamoyl)-5-(2-hydroxy-propan-2-yl)thiazole-2-sulfonimidamide]

IC50 [3]: 200 to 1000 nM
SMILES: CC(C)(O)c1ncc(S(N)(=O)=NC(=O)Nc2c3c(cc4c2C(O)CC4)CCC3)s1 (single isomer, unassigned) [Example 391, (R, R) or (R, S) or (S, S) or (S, R)-N′-((3-hydroxy-1,2,3,5,6,7-hexahydro-s-indacen-4-yl)carbamoyl)-2-(2-hydroxypropan-2-yl)thiazole-5-sulfonimid-amide]

SMILES: CN(C)Cc1ccc([S@](N)(=O)=NC(=O)Nc2c3c(cc4c2CCC4)CCC3)cc1F (single isomer, unassigned) [Example 605, (R) or (S)-4-((dimethylamino)methyl)-3-fluoro-N′-((1,2,3,5,6,7-hexahydro-s-indacen-4-yl)carbamoyl) benzenesulfonimidamide]
IC50 [1]: 200 to 1000 nM

IC50 [2]: 5000 to 30000 nM
SMILES: CC(C)(O)c1ncc(S(N)(=O)=NC(=O)Nc2cc3c(c4c2CCC4=O)CCC3)s1 (single isomer, unassigned) [Example 565, (R) or (S)-2-(2-hydroxypropan-2-yl)-N′-((1-oxo-1,2,3,6,7,8-hexahydro-as-indacen-4-yl)carbamoyl) thiazole-5-sulfonimidamide]

IC50 [1]: 1000 to 5000 nM
SMILES: NS(=O)(=NC(=O)Nc1c2c(cc3c1CCC3)CCC2)c1cnn2c1OC[C@H](O)C2 (single isomer, unassigned) [Example 516, (S,6R) or (R,6R)-N′-((1,2,3,5,6,7-hexahydro-s-indacen-4-yl)carbamoyl)-6-hydroxy-6,7-dihydro-5H-pyrazolo[5,1-b] [1,3]oxazine-3-sulfonimidamide]

IC50 (Table B3, hTHP-1 assay containing 2% fetal bovine serum, gramicidin stimulation, IL-1β readout, read-out: hTHP-1 IC50): 40 to 200 nM
SMILES: CC(C)(CO)c1ncc(S(N)(=O)=NC(=O)Nc2c3c(c(C#N)c4c2CCC4)CCC3)s1 (single isomer, unassigned) [Example 830, (R) or (S)-N′-((8-cyano-1,2,3,5,6,7-hexahydro-s-indacen-4-yl)carbamoyl)-2-(1-hydroxy-2-methylpropan-2-yl)thiazole-5-sulfonimidamide]
